T/C data for 16 compounds are collected here from PubChem BioAssay AID328 (DTP/NCI, 2004).

This experiment has as its system BDF1 mice, P388 leukemia ip, median survival T/C. Nature of the experiment: NCI In Vivo Anticancer Drug Screen. Data for tumor model P388 Leukemia (intraperitoneal) in B6D2F1 (BDF1) mice. Particulars: endpoint: median survival time, higher = longer survival. The procedure, abridged:
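T/C = treated-group survival ÷ vehicle-control survival; tumour transplanted into mice before dosing.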

Setting [1] is: dose: 100.0 mg/kg/injection, schedule: Q01DX009 (ip), vehicle: saline with Tween-80.
Setting [2] is: dose: 200.0 mg/kg/injection, schedule: Q01DX009 (ip), vehicle: saline with Tween-80.
[3] abbreviates: dose: 50.0 mg/kg/injection, schedule: Q01DX009 (ip), vehicle: saline with Tween-80.
The mark [4] stands for this setting: dose: 100.0 mg/kg/injection, schedule: Q01DX001 (ip), vehicle: saline with Tween-80.
[5] abbreviates: dose: 25.0 mg/kg/injection, schedule: Q01DX009 (ip), vehicle: saline with Tween-80.
The mark [6] stands for this setting: dose: 100.0 mg/kg/injection, schedule: Q04DX003 (ip), vehicle: Klucel (hydroxypropylcellulose) (HPC).
Setting [7] is: dose: 75.0 mg/kg/injection, schedule: Q01DX009 (ip), vehicle: Klucel (hydroxypropylcellulose) (HPC).

Where “and” joins values, the source holds several entries; their conditions need not be identical. Equal values may be shown once. Inconclusive results and toxic doses are left out.

Consider `COc1ccc(C(=O)/C(Br)=C/C(=O)O)cc1`, for which the T/C is, setting by setting: (dose: 6.3 mg/kg/injection, schedule: Q01DX009 (ip), vehicle: saline) 106 % of control; (dose: 12.5 mg/kg/injection, schedule: Q01DX009 (ip), vehicle: water) 120 % of control; (dose: 25.0 mg/kg/injection, schedule: Q01DX009 (ip), vehicle: water) 150 % of control; (dose: 25.0 mg/kg/injection, schedule: Q04DX002 (ip), vehicle: saline) 108 % of control and 109 % of control; (dose: 50.0 mg/kg/injection, schedule: Q01DX009 (ip), vehicle: water) 100 % of control; (dose: 50.0 mg/kg/injection, schedule: Q04DX002 (ip), vehicle: saline) 116 % of control and 118 % of control. Besides, for the setting “dose: 100.0 mg/kg/injection, schedule: Q04DX002 (ip), vehicle: saline”, the T/C was 150 % of control.
Regarding `Cc1cccc(NC(=O)NCCOC(=O)OCCNC(=O)Nc2cccc(C)c2C)c1C`, the T/C by setting is: under setting [1], 90 % of control; under setting [2], 90 % of control; (dose: 400.0 mg/kg/injection, schedule: Q01DX009 (ip), vehicle: saline with Tween-80) 113 % of control.
With `CN(C)CCSC1=CC(=O)c2ccccc2C1=O`, the T/C was 116 % of control (dose: 0.19 mg/kg/injection, schedule: Q01DX009 (ip), vehicle: water); 95 % of control (dose: 0.19 mg/kg/injection, schedule: Q04DX003 (ip), vehicle: water); 109 % of control (dose: 0.39 mg/kg/injection, schedule: Q01DX009 (ip), vehicle: water); 105 % of control (dose: 0.39 mg/kg/injection, schedule: Q04DX003 (ip), vehicle: water); 110 % of control (dose: 0.78 mg/kg/injection, schedule: Q01DX009 (ip), vehicle: water); 104 % of control (dose: 0.78 mg/kg/injection, schedule: Q04DX003 (ip), vehicle: water). The T/C is 109 % of control (dose: 1.56 mg/kg/injection, schedule: Q01DX009 (ip), vehicle: water); 106 % of control (dose: 1.56 mg/kg/injection, schedule: Q04DX003 (ip), vehicle: water); 95 % of control (dose: 3.12 mg/kg/injection, schedule: Q04DX003 (ip), vehicle: water).
In the case of `c1ccc2c(c1)ccc1nc3c4ccccc4c4ccccc4c3nc12`, the T/C reads like this: under setting [3], 114 % of control; under setting [1], 113 % of control; under setting [2], 105 % of control.
For the compound `CC[C@](C)(O)C(=O)O[C@H]1C(=O)O[C@@H]2C[C@H]3C(C)=C[C@H](O)[C@@H](O)[C@]3(C)[C@H]3[C@@]4(O)OC[C@]32[C@@H]1[C@@H](C)[C@H]4O`, the T/C was 113 % of control (dose: 1.0 mg/kg/injection, schedule: Q01DX010 (ip), vehicle: other) and 113 % of control (dose: 4.0 mg/kg/injection, schedule: Q01DX010 (ip), vehicle: other).
In the case of `Oc1c(-c2ccccc2)cc(-[n+]2c(-c3ccccc3)cc(-c3ccc(-c4ccccc4)cc3)cc2-c2ccccc2)cc1-c1ccccc1`, the T/C (dose: 25.0 mg/kg/injection, schedule: Q01DX001 (ip), vehicle: saline with Tween-80) is 107 % of control; the T/C (dose: 50.0 mg/kg/injection, schedule: Q01DX001 (ip), vehicle: saline with Tween-80) was 98 % of control; the T/C under setting [4] was 102 % of control.
As for `COCCn1c2nc(=O)n(-c3ccccc3)c(=O)c-2nc2c1CCCC2`, the T/C by setting is: under setting [5], 103 % of control; under setting [3], 97 % of control and 112 % of control; under setting [1], 113 % of control and 124 % of control; under setting [2], 110 % of control.
Take `N#Cc1cccc(/C=C/C=C\c2ccc([N+](=O)[O-])cc2)c1`: the T/C was 95 % of control (dose: 100.0 mg/kg/injection, schedule: Q01DX001 (ip), vehicle: Klucel (hydroxypropylcellulose) (HPC)); 90 % of control (dose: 200.0 mg/kg/injection, schedule: Q01DX001 (ip), vehicle: Klucel (hydroxypropylcellulose) (HPC)); 90 % of control (dose: 400.0 mg/kg/injection, schedule: Q01DX001 (ip), vehicle: Klucel (hydroxypropylcellulose) (HPC)).
Regarding `CCN1/C(=C/C=C/C=C\C=C\c2sc3ccc4ccccc4c3[n+]2CC)Sc2ccc3ccccc3c21`, the T/C reads like this: (dose: 1.56 mg/kg/injection, schedule: Q04DX002 (ip), vehicle: saline with Tween-80) 173 % of control; (dose: 3.12 mg/kg/injection, schedule: Q04DX002 (ip), vehicle: saline with Tween-80) 162 % of control.
On to `CC(C)(CBr)C(=O)N1CCN(C(=O)C(C)(C)CBr)CC1`, for which the T/C reads like this: (dose: 20.0 mg/kg/injection, schedule: Q04DX003 (ip), vehicle: Klucel (hydroxypropylcellulose) (HPC)) 150 % of control; (dose: 30.0 mg/kg/injection, schedule: Q04DX003 (ip), vehicle: Klucel (hydroxypropylcellulose) (HPC)) 159 % of control and 163 % of control; (dose: 44.0 mg/kg/injection, schedule: Q04DX003 (ip), vehicle: Klucel (hydroxypropylcellulose) (HPC)) 163 % of control and 165 % of control; under setting [6], 195 % of control and 200 % of control; (dose: 150.0 mg/kg/injection, schedule: Q04DX003 (ip), vehicle: Klucel (hydroxypropylcellulose) (HPC)) 175 % of control.
Regarding `NC(=S)N/N=C\c1nccc2c(N)cccc12`, the T/C by setting is: (dose: 6.25 mg/kg/injection, schedule: Q01DX009 (ip), vehicle: saline with Tween-80) 186 % of control; (dose: 12.5 mg/kg/injection, schedule: Q01DX009 (ip), vehicle: saline with Tween-80) 191 % of control; under setting [5], 195 % of control; under setting [3], 91 % of control; (dose: 75.0 mg/kg/injection, schedule: Q01DX009 (ip), vehicle: saline with Tween-80) 89 % of control.
On to `COc1ccc2cc1Oc1ccc(cc1)C[C@H]1c3cc(c(OC)cc3CCN1C)Oc1c(OC)c(OC)cc3c1[C@H](C2)N(C)CC3`, for which the T/C by setting is: (dose: 12.5 mg/kg/injection, schedule: Q04DX003 (ip), vehicle: saline) 105 % of control; (dose: 25.0 mg/kg/injection, schedule: Q04DX003 (ip), vehicle: saline) 90 % of control; (dose: 50.0 mg/kg/injection, schedule: Q04DX003 (ip), vehicle: saline) 110 % of control; (dose: 100.0 mg/kg/injection, schedule: Q04DX003 (ip), vehicle: saline) 110 % of control.
As to `C=CC(CN1CC1)OC(C)=O` (configuration not stated), the T/C was 112 % of control (dose: 2.0 mg/kg/injection, schedule: Q01DX010 (ip), vehicle: saline); 163 % of control (dose: 4.0 mg/kg/injection, schedule: Q01DX010 (ip), vehicle: saline); 181 % of control (dose: 8.0 mg/kg/injection, schedule: Q01DX010 (ip), vehicle: saline); 166 % of control (dose: 16.0 mg/kg/injection, schedule: Q01DX010 (ip), vehicle: saline).
With `C1SCSCS1`, the T/C was 118 % of control under setting [7]; 109 % of control (dose: 100.0 mg/kg/injection, schedule: Q01DX001 (ip), vehicle: other); 100 % of control under setting [6]; 100 % of control (dose: 150.0 mg/kg/injection, schedule: Q01DX009 (ip), vehicle: Klucel (hydroxypropylcellulose) (HPC)); 90 % of control (dose: 200.0 mg/kg/injection, schedule: Q01DX001 (ip), vehicle: other); 109 % of control (dose: 200.0 mg/kg/injection, schedule: Q04DX003 (ip), vehicle: Klucel (hydroxypropylcellulose) (HPC)). The T/C reads like this: (dose: 300.0 mg/kg/injection, schedule: Q01DX009 (ip), vehicle: Klucel (hydroxypropylcellulose) (HPC)) 113 % of control; (dose: 400.0 mg/kg/injection, schedule: Q01DX001 (ip), vehicle: other) 100 % of control; (dose: 400.0 mg/kg/injection, schedule: Q04DX003 (ip), vehicle: Klucel (hydroxypropylcellulose) (HPC)) 113 % of control.
In the case of `CC1(CCC(=O)/C=C/c2ccccc2)CCC/C(=C/c2ccccc2)C1=O` (configuration not stated), the T/C runs as follows: (dose: 12.5 mg/kg/injection, schedule: Q01DX009 (ip), vehicle: Klucel (hydroxypropylcellulose) (HPC)) 110 % of control; (dose: 25.0 mg/kg/injection, schedule: Q01DX009 (ip), vehicle: Klucel (hydroxypropylcellulose) (HPC)) 115 % of control; (dose: 50.0 mg/kg/injection, schedule: Q01DX009 (ip), vehicle: Klucel (hydroxypropylcellulose) (HPC)) 110 % of control; under setting [7], 100 % of control; (dose: 115.0 mg/kg/injection, schedule: Q01DX009 (ip), vehicle: Klucel (hydroxypropylcellulose) (HPC)) 100 % of control; (dose: 170.0 mg/kg/injection, schedule: Q01DX009 (ip), vehicle: Klucel (hydroxypropylcellulose) (HPC)) 95 % of control.
For `COc1cc(Nc2nc(Cl)ncc2[N+](=O)[O-])cc(OC)c1OC`, the T/C runs as follows: under setting [4], 104 % of control; (dose: 200.0 mg/kg/injection, schedule: Q01DX001 (ip), vehicle: saline with Tween-80) 100 % of control; (dose: 400.0 mg/kg/injection, schedule: Q01DX001 (ip), vehicle: saline with Tween-80) 100 % of control.
